Like-named read-outs stand apart in the source and are kept apart here. Values belong to the molecule of their own block, whether it stands above or below them. Numbered stars: 1 amine (or outer) side, 2 acyl side, 3 side chain; on linkers, the order of the positions; unused ones are H or OH. Square brackets hold non-standard residues; d marks the D form. Ends that are not written are not given here. Peptide text beside a SMILES is read from it. X1 = O=C(O)C[C@@H](C(=O)[*:2])N(C[C@H](O)[C@@H](O)[C@H](O)[C@H](O)CO)[*:1]; sY = N[C@@H](Cc1ccc(OS(=O)(=O)O)cc1)C(=O)O
Tests used:
Swiss TO mice = assay: Voluntary food intake in fasted Swiss TO mice after i.p. injection; type: in vivo, mouse
Procedure: Effects of CCK-8, Asp^1glucitol CCK-8, pGlu-Gln CCK-8 and other peptides on food intake in mice. Studies to evaluate the relative potencies of control CCK-8, Asp^1-glucitol CCK-8, pGlu-Gln CCK-8 and other peptides involved in regulation of feeding were performed using male Swiss TO mice (n=16) aged 7-12 weeks from a colony originating from the Behavioral and Biomedical Research Unit, University of Ulster. The animals were housed individually in an air-conditioned room at 22±2° C. with 12 h light/12 h dark cycle. Drinking water was supplied ad libitum and standard mouse maintenance diet (Trouw Nutrition, Cheshire, UK) was provided for various times as indicated below. The mice were habituated to a daily feeding period of 3 h/day by progressively reducing the feeding period over a 3 week period. On days 1-6, food was supplied from 10.00 to 20.00 h, days 7-14 from 10.00 to 16.00 h and days 15-21 food was restricted to 10.00 to 13.00 h. Body weight, food and water intake were monitored daily.
(§1) Mice which had been previously habituated to feeding for 3 h/day were administered a single i.p. injection of saline (0.9% w/v NaCl, 10 ml/kg) in the fasted state (10.00 h) and food was immediately returned following injection. Two days after the saline injection, mice were randomly allocated into groups of 7-8 animals which were administered a single i.p. injection (from 1 to 100 nmol/kg) of either CCK-8, structurally modified CCK-8 analogues and/or other peptide hormones (including, bombesin, leptin and islet amyloid polypeptide (IAPP)). Food intake was carefully monitored at 30 min intervals up to 180 min post injection. In one series of experiments, the ability of CCK-8 and Asp^1-glucitol CCK-8 to inhibit feeding activity was studied in overnight fasted adult obese hyperglycaemic (ob/ob) mice. All animal studies were done in accordance with the Animals (Scientific Procedures) Act 1986.
Statistical analysis. Groups of data are presented as means±SE. Statistical evaluation was performed using analysis of variance, least significant difference multiple comparisons test and Student's unpaired t-test as appropriate. Differences were considered to be significant if P<0.05.

[1] = generally accepted; cited from earlier work
[2] = Effects of mouse serum on in vitro degradation of peptides (HPLC); type: in vitro ADME
Procedure: Effects of mouse serum on degradation of CCK-8, Asp^1glucitol CCK-8 and pGlu-Gln CCK-8. Serum (20 μl) from fasted Swiss TO mice was incubated at 37° C. with 10 μg of either native CCK-8, Asp^1-glucitol CCK-8 or pGlu-Gln CCK-8 for periods up to 2 h in a reaction mixture (final vol. 500 μl ) containing 50 mmol/l triethanolamine/HCl buffer pH 7.8. The reaction was stopped by addition of 5 μl of TFA and the final volume adjusted to 1.0 ml using 0.1% (v/v) TFA/water. Samples were centrifuged (13,000 g, 5 min) and the supernatant applied to a C-18 Sep-Pak cartridge (Waters/Millipore) which was previously primed and washed with 0.1% (v/v) TFA/water. After washing with 20 ml 0.12% TFA/water, bound material was released by elution with 2 ml of 80% (v/v) acetonitrile/water and concentrated using a Speed-Vac concentrator (AES 1000, Savant). The volume was adjusted to 1.0 ml with 0.12% (v/v) TFA/water and applied to a (250×4.6 mm) Vydac C-18 column pre-equilibrated with 0.12% (v/v) TFA/water at a flow rate of 1.0 ml/min. The concentration of acetonitrile in the eluting solvent was raised from 0 to 31.5% over 15 min, from 31.5 to 38.5% over 30 min, and from 38.5 to 70% over 5 min, using linear gradients monitoring eluting peaks at 206 nm.

[3] = tested on: obese diabetic (ob/ob) mice; assay: Voluntary food intake in fasted obese diabetic (ob/ob) mice after i.p. injection; type: in vivo, mouse; conditions: 100 nmol/kg i.p.
Procedure: as §1
FIG. 4 Effect of CCK-8, Asp^1-glucitol CCK-8 or saline on voluntary food intake in obese diabetic (ob/ob) mice. Saline or test agents were administered by i.p. injection (100 nmol/kg) to fasted obese diabetic (ob/ob) mice at time 0 immediately before introduction of food. Cumulative food intake was monitored at 30, 60, 90, 120, 150, 180, 210, 240, 270 and 300 min post injection. Values are means±SE of 8 observations. […]

Molecule: glycated tGLP-1: control peptide with a glucitol adduct on the amino-terminus (glucitol-HAEGTFTSDVSSYLEGQAAKEFIAWLVKGR; ends and bridges not checked; UniProt P01275 98-127, looked up)
- induction of satiety (control experiment) (Swiss TO mice; control experiments in this test system): insufficient on its own to induce satiety

- metabolised at 1 h, 20 µg/ml ([2]; Swiss TO, pH 7.8, after 1 h incubation with mouse serum, read-out: % converted to CCK-8 fragments (HPLC peak area)): 83.1%
- metabolised at 2 h, 20 µg/ml ([2]; Swiss TO, pH 7.8, after 2 h incubation with mouse serum, read-out: % converted to CCK-8 fragments (HPLC peak area)): 100%
- remaining at 1 h, 20 µg/ml ([2]; Swiss TO, pH 7.8, intact peptide peak, incubation time 1 h, mouse serum, 37° C., read-out: % Total CCK-like material): 16.9%
- remaining at 2 h, 20 µg/ml ([2]; Swiss TO, pH 7.8, intact peptide peak, incubation time 2 h, mouse serum, 37° C., read-out: % Total CCK-like material): 0%
- % Total CCK-like material ([2]; intact peptide peak, incubation time 0 h, mouse serum, 37° C.): 100%
- % Total CCK-like material ([2]; peak CCK-8 fragment (B), incubation time 1 h): 39.3%
- % Total CCK-like material ([2]; peak CCK-8 fragment (B), incubation time 2 h): 58.7%
- % Total CCK-like material ([2]; peak CCK-8 fragment (C), incubation time 1 h): 43.8%
- % Total CCK-like material ([2]; peak CCK-8 fragment (C), incubation time 2 h): 29.5%
- % Total CCK-like material ([2]; peak CCK-8 fragment (D), incubation time 2 h): 11.8%
Molecule: CSCC[C@H](NC(=O)[C@H](Cc1ccc(OS(=O)(=O)O)cc1)NC(=O)[C@@H](N)CC(=O)O)C(=O)NCC(=O)N[C@@H](Cc1c[nH]c2ccccc12)C(=O)N[C@@H](CCSC)C(=O)N[C@@H](CC(=O)O)C(=O)N[C@@H](Cc1ccccc1)C(N)=O [CCK-8, Asp^1Tyr^2(SO3H)-Met^3Gly^4Trp^5Met^6Asp^7Phe^8amide]
- half-life [1]: 1 to 2 min

- % Total CCK-like material [2]: 100%
- remaining at 1 h, 20 µg/ml ([2]; Swiss TO, mouse, serum, pH 7.8): 100%
- remaining at 2 h, 20 µg/ml ([2]; Swiss TO, mouse, serum, pH 7.8): 100%
Molecule: CSCC[C@H](NC(=O)[C@H](Cc1ccc(OS(=O)(=O)O)cc1)NC(=O)[C@H](CC(=O)O)NC[C@H](O)[C@@H](O)[C@H](O)[C@H](O)CO)C(=O)NCC(=O)N[C@@H](Cc1c[nH]c2ccccc12)C(=O)N[C@@H](CCSC)C(=O)N[C@@H](CC(=O)O)C(=O)N[C@@H](Cc1ccccc1)C(N)=O [Asp^1-glucitol CCK-8] (H-[X1][sY]MGWMDF-NH2)
- potency compared with native CCK-8 ([3]; FIG. 4): considerable more potent
- effect on voluntary food intake ([3]; FIG. 4, up to 300 min): significantly reduce voluntary food intake
- potency at reducing food intake compared to equivalent dose of CCK-8 (Swiss TO mice; 100 nmol/kg i.p., FIG. 3): significantly more potent at reducing food intake at each time point (except at 30 min)
- sustained inhibition of cumulative food intake over 3 h compared to saline (Swiss TO mice; 100 nmol/kg i.p., FIG. 3, up to 180 min): sustained over the 3 h post-treatment feeding period
- dose-response effects on food intake compared with CCK-8 (Swiss TO mice; 1 to 100 nmol/kg i.p., FIGS. 5-7): more prolonged effects at lower doses

Reference: patent publication US7402663B2, “Modified peptide” (University of Ulster, priority 2001, dated 2008)
